The text below walks through data of patent US5229379A, “Certain N-substituted-amino-alkane phosphinic acid derivatives having anti-epileptic properties” (priority 1990, dated 1993).

The subject of assay [1] is "spike and wave" discharges induced by phenytoin in epileptic rats. In words: Antagonism of the spike and wave discharges induced by phenytoin in epileptic rats. In kind it is in vivo, rat. As to the method: (§1) The method and test arrangement correspond to those of Pharmacological Example 1.
3-Aminopropyl(diethoxymethyl)phosphinic acid: Antagonism of the "spike and wave" discharges induced by phenytoin. 3-Aminopropyl(diethoxymethyl)phosphinic acid was administered at time 0, and 20 mg/kg of phenytoin were administered at time 40, in each case i.p..

Assay [2] deals with "spike and wave" discharges induced by Vigabatrin® in epileptic rats. In words: Antagonism of the spike and wave discharges induced by Vigabatrin in epileptic rats. In kind it is in vivo, rat. How it is done:
as §1
3-Aminopropyl(diethoxymethyl)phosphinic acid: Antagonism of the "spike and wave" discharges induced by Vigabatrin®.3-Aminopropyl(diethoxymethyl)phosphinic acid was administered at time 0, and 20 mg/kg of Vigabatrin® were administered at time 160, in each case i.p..

Assay [3] deals with "spike and wave" discharges induced by carbamazepine in epileptic rats. Description: Antagonism of the spike and wave discharges induced by carbamazepine in epileptic rats. In kind it is in vivo, rat. How it is done: as §1
3-Aminopropyl(diethoxymethyl)phosphinic acid: Antagonism of the "spike and wave" discharges induced by carbamazepine. 3-Aminopropyl(diethoxymethyl)phosphinic acid was administered at time 0, and 20 mg/kg of carbamazepine were administered at time 40, in each case i.p..

Assay [4] has as its system "spike and wave" discharges in epileptic rats (male Wistar rats of the Strasbourg colony). Description: Inhibition of spike and wave discharges in epileptic rats (absence epilepsy model). In kind it is in vivo. Conditions: epileptic rat model; for minimal effective dose: dose-dependent, read-out: dose that reduces the spike and wave discharges. The text has this:
Synchronous "spike and wave" discharges (SWD; frontopariental cortex; 7-8 Hz; 300-1000 μV, duration 0.5 to 40 s, mean value=6.0±3.4 s) and frequently myoclonia facialis accompany a cessation of behaviour. These absence-like conditions occur spontaneously and repeatedly. […] In contrast, a strain could be reared in which 100% of the rats are SWD-free (control rats). This pharmacological model is described in Vergnes M., Marescaux C., Micheletti G., Reis J., Depaulis A., Rumbach L. and Warter J. M., Neurosci. Lett. 33. 97-101 (1982).
In this model, for example, the clinically used anti-epileptics ethosuximide, diazepam, trimethadione and sodium valproate in doses≥25 mg/kg (ethosuximide),≥0.5 mg/kg (diazepam) and≥50 mg/kg (trimethadione and sodium valproate) reduce the spike and wave discharges in dose-dependent manner. […] Phenobarbital is effective at from 2.5 to 10 mg/kg and is ineffective at 20 mg/kg. The action of these anti-epileptics on the crises in rats and absences in humans supports the hypothesis that this animal model represents a pharmacological model for absence epilepsy. Its predictive value appears to be at least as good as that of other customary animal models.
The action of GABAB -antagonists was tested on male Wistar rats (300-400 g) of the Strasbourg colony. […] The rats received water and food ad libidum, and the light/dark cycle was 12/12 hours. The rats were anaesthetised with pentobarbital (40 mg/kg i.p.) and implanted bilaterally with 4 stainless steel electrodes (two in the frontal cortex and two in the parietal cortex). The rats were used for experiments no sooner than one week after the operation.
The rats, which were freely mobile, were accommodated in a Plexiglass cage (17×17×28 cm) (one rat per cage), and, after a 15-minute period for adaptation to the new surroundings, the EEG was recorded over a period of 20 minutes (reference period). The reference line for the particular test series is thus obtained. A GABAB -antagonist was then administered and the EEG was recorded over a period of from 120 to 180 minutes. The rats were kept under constant observation during this period and prevented from falling asleep by gentle manual contact.
The test compound was dissolved in 0.9% sodium chloride solution and injected in doses of 50, 100, 200 and 400 mg/kg i.p.. Alternatively, the test compound may be administered in a polyethylene glycol, such as Tween® 80, (2 drops/10 ml of suspension of the test compound in 0.9% sodium chloride solution; the suspension is homogenised at 40° for 10 minutes by means of ultrasound, injection volume: 2 ml/kg) i.p. or by means of a stomach probe p.o.. Test compounds that are soluble with difficulty are advantageously administered in solution in a mixture of dimethyl sulfoxide (not more than 10% by volume) and 0.9% sodium chloride solution or in 45% aqueous hydroxypropyl-β-cyclodextrin solution. Each animal is treated with all doses in a randomised sequence. The time between two treatments should be at least 5 days. The mean values ±SEM of the sum total duration of the "spike and wave" discharges of 6 rats over a period of 20 minutes are recorded.
The sum total duration of the spike and wave discharges (in seconds) is measured for each 20-minute period of the EEG recording. Comparisons between the treatment and the reference period are carried out by means of non-parametric variance analysis of the groups concerned (Friedman test). The control group and the treated groups are compared by means of the Wilcoxon test only when a significant difference between the two groups is found in the Friedmann test. The significances of the differences according to Wilcoxon between doses marked by an asteriks and dose 0 corresponds to p<0,005.

The test system of assay [5] is "epilepsy-like" discharges of pyramidal cells. In words: Penicillin-induced epileptic hippocampus section preparation (antagonism to baclofen). In kind it is cell-based. How it is done: The novel GABAB -antagonists according to the invention interact at the GABAB -receptor with IC50 values of approximately 10^-8 M (moles/l) and above in cerebral cortex membranes of rats. […] The compounds according to the invention act as an antagonist to baclofen action at concentrations of from approximately 10 to approximately 100 μM (micromoles/liter). […] At doses of approximately 30 mg/kg, antagonism to the muscle-relaxing action of baclofen occurs, which is measured in the Rotarod model.

In the case of `CCOC(OCC)P(=O)(O)CCCN` [3-aminopropyl(diethoxymethyl)phosphinic acid], the “sum total duration of the spike and wave discharges” value (“sum total duration” for short) is 394 ± 87 s in assay [1] (test compound 200 mg/kg i.p. at time 0, phenytoin 20 mg/kg i.p. at time 40, period 0-20 min); 172 ± 64 s in assay [1] (test compound 200 mg/kg i.p. at time 0, phenytoin 20 mg/kg i.p. at time 40, period 20-40 min); 124 ± 85 s in assay [1] (test compound 200 mg/kg i.p. at time 0, phenytoin 20 mg/kg i.p. at time 40, period 40-60 min); 239 ± 70 s in assay [1] (test compound 200 mg/kg i.p. at time 0, phenytoin 20 mg/kg i.p. at time 40, period 60-80 min); 95 ± 37 s in assay [1] (test compound 200 mg/kg i.p. at time 0, phenytoin 20 mg/kg i.p. at time 40, period 80-100 min); 139 ± 61 s in assay [1] (test compound 400 mg/kg i.p. at time 0, phenytoin 20 mg/kg i.p. at time 40, period 0-20 min). Moreover, the “sum total duration” value amounted to 48 ± 40 s in assay [1] (test compound 400 mg/kg i.p. at time 0, phenytoin 20 mg/kg i.p. at time 40, period 20-40 min); 31 ± 31 s in assay [1] (test compound 400 mg/kg i.p. at time 0, phenytoin 20 mg/kg i.p. at time 40, period 40-60 min); 56 ± 53 s in assay [1] (test compound 400 mg/kg i.p. at time 0, phenytoin 20 mg/kg i.p. at time 40, period 60-80 min); 42 ± 39 s in assay [1] (test compound 400 mg/kg i.p. at time 0, phenytoin 20 mg/kg i.p. at time 40, period 80-100 min); 213 ± 52 s in assay [2] (test compound 200 mg/kg i.p. at time 0, Vigabatrin 20 mg/kg i.p. at time 160, period 240-260 min); 249 ± 57 s in assay [2] (test compound 200 mg/kg i.p. at time 0, Vigabatrin 20 mg/kg i.p. at time 160, period 260-280 min). Also, the “sum total duration” value amounted to 44 ± 13 s in assay [2] (test compound 400 mg/kg i.p. at time 0, Vigabatrin 20 mg/kg i.p. at time 160, period 240-260 min); 28 ± 8 s in assay [2] (test compound 400 mg/kg i.p. at time 0, Vigabatrin 20 mg/kg i.p. at time 160, period 260-280 min); 353 ± 53 s in assay [3] (test compound 200 mg/kg i.p. at time 0, carbamazepine 20 mg/kg i.p. at time 40, period 0-20 min); 178 ± 37 s in assay [3] (test compound 200 mg/kg i.p. at time 0, carbamazepine 20 mg/kg i.p. at time 40, period 20-40 min); 173 ± 78 s in assay [3] (test compound 200 mg/kg i.p. at time 0, carbamazepine 20 mg/kg i.p. at time 40, period 40-60 min); 70 ± 64 s in assay [3] (test compound 200 mg/kg i.p. at time 0, carbamazepine 20 mg/kg i.p. at time 40, period 60-80 min). Further, the “sum total duration” value worked out at 18 ± 17 s in assay [3] (test compound 200 mg/kg i.p. at time 0, carbamazepine 20 mg/kg i.p. at time 40, period 80-100 min); 115 ± 43 s in assay [3] (test compound 400 mg/kg i.p. at time 0, carbamazepine 20 mg/kg i.p. at time 40, period 0-20 min); 93 ± 71 s in assay [3] (test compound 400 mg/kg i.p. at time 0, carbamazepine 20 mg/kg i.p. at time 40, period 20-40 min); 23 ± 14 s in assay [3] (test compound 400 mg/kg i.p. at time 0, carbamazepine 20 mg/kg i.p. at time 40, period 40-60 min); 29 ± 29 s in assay [3] (test compound 400 mg/kg i.p. at time 0, carbamazepine 20 mg/kg i.p. at time 40, period 60-80 min); 9 ± 9 s in assay [3] (test compound 400 mg/kg i.p. at time 0, carbamazepine 20 mg/kg i.p. at time 40, period 80-100 min).
`CCC1(c2ccccc2)C(=O)NC(=O)NC1=O` [Phenobarbital]: the “effect on the spike and wave discharges (in words)” value (“effect … (in words)” for short) in assay [4] (20 mg/kg) is “ineffective”.
`C=CC(N)CCC(=O)O` (stereo not shown) [Vigabatrin®, Vigabatrin, reference compound]: the “sum total duration” value was 875 ± 63 s in assay [2] (Vigabatrin 20 mg/kg i.p. at time 160 alone (antagonist dose 0), period 240-260 min) and 938 ± 65 s in assay [2] (Vigabatrin 20 mg/kg i.p. at time 160 alone (antagonist dose 0), period 260-280 min).
`NCC(CC(=O)O)c1ccc(Cl)cc1` (stereo not shown) [baclofen]: the “concentration that inhibits epilepsy-like discharges of pyramidal cells” value in assay [5] was determined as 6 µM.
For `NC(=O)N1c2ccccc2C=Cc2ccccc21` [carbamazepine, reference compound], the “sum total duration” value worked out at 636 ± 43 s in assay [3] (carbamazepine 20 mg/kg i.p. at time 40 alone (antagonist dose 0), period 40-60 min); 669 ± 14 s in assay [3] (carbamazepine 20 mg/kg i.p. at time 40 alone (antagonist dose 0), period 60-80 min); 675 ± 75 s in assay [3] (carbamazepine 20 mg/kg i.p. at time 40 alone (antagonist dose 0), period 80-100 min). The “effect … (in words)” value in assay [4] is given as “ineffective or make the attacks worse at high doses”.
In the case of `CN1C(=O)CN=C(c2ccccc2)c2cc(Cl)ccc21` [diazepam], in assay [4], the minimal effective dose is no less than 0.5 mg/kg.
Turning to `CCC1(C)CC(=O)NC1=O` (stereo not shown) [ethosuximide], the minimal effective dose in assay [4] was no less than 25 mg/kg.
As for `O=C1NC(=O)C(c2ccccc2)(c2ccccc2)N1` [phenytoin, reference compound], the “sum total duration” value in assay [1] (phenytoin 20 mg/kg i.p. at time 40 alone (antagonist dose 0), period 40-60 min) was 555 ± 24 s; in assay [1] (phenytoin 20 mg/kg i.p. at time 40 alone (antagonist dose 0), period 60-80 min) it was 658 ± 27 s; in assay [1] (phenytoin 20 mg/kg i.p. at time 40 alone (antagonist dose 0), period 80-100 min), 562 ± 76 s. In addition, the “effect … (in words)” value in assay [4] is “ineffective or make the attacks worse at high doses”.
Take `CCCC(CCC)C(=O)[O-].[Na+]` [sodium valproate]: the minimal effective dose in assay [4] is no less than 50 mg/kg.
The same measure, in the same setting: in the case of `CN1C(=O)OC(C)(C)C1=O` [trimethadione] it was no less than 50 mg/kg.
